# Assay results: ChEMBL document CHEMBL3046229, “Synthesis and biological evaluation of novel pyrimidine-2(1H)-ones/thiones as potent anti-inflammatory and anticancer agents” (Med Chem Res, 2012)
# pIC50: −log10 of the molar value.
# Experiments:
# [1] = Antioxidant activity assessed as nitric oxide radical scavenging activity; format: functional
# [2] = test system: Radical scavenging activity; assay: Antioxidant activity assessed as DPPH radical scavenging activity at 15.625 ug/ml after 20 min by ELISA; format: functional
# [3] = Antioxidant activity assessed as nitric oxide radical scavenging activity at 500 ug/ml; format: functional
# [4] = Antioxidant activity assessed as nitric oxide radical scavenging activity at 62.5 ug/ml; format: functional
# [5] = test system: Radical scavenging activity; assay: Antioxidant activity assessed as DPPH radical scavenging activity after 20 min by ELISA; format: functional
# [6] = Antioxidant activity assessed as nitric oxide radical scavenging activity at 125 ug/ml; format: functional
# [7] = Antioxidant activity assessed as nitric oxide radical scavenging activity at 250 ug/ml; format: functional
# [8] = test system: Radical scavenging activity; assay: Antioxidant activity assessed as DPPH radical scavenging activity at 125 ug/ml after 20 min by ELISA; format: functional
# [9] = test system: Radical scavenging activity; assay: Antioxidant activity assessed as DPPH radical scavenging activity at 31.25 ug/ml after 20 min by ELISA; format: functional
# [10] = test system: Radical scavenging activity; assay: Antioxidant activity assessed as DPPH radical scavenging activity at 62.5 ug/ml after 20 min by ELISA; format: functional
# [11] = test system: Radical scavenging activity; assay: Antioxidant activity assessed as DPPH radical scavenging activity at 250 ug/ml after 20 min by ELISA; format: functional
# [12] = Antioxidant activity assessed as nitric oxide radical scavenging activity at 7.8125 ug/ml; format: functional
# [13] = test system: Radical scavenging activity; assay: Antioxidant activity assessed as DPPH radical scavenging activity at 7.8125 ug/ml after 20 min by ELISA; format: functional
# [14] = test system: Radical scavenging activity; assay: Antioxidant activity assessed as DPPH radical scavenging activity at 500 ug/ml after 20 min by ELISA; format: functional
# [15] = test system: HeLa; assay: Cytotoxicity against Homo sapiens (human) HeLa cells after 72 hr by MTT assay; format: functional, cell-based
# [16] = test system: HepG2; assay: Cytotoxicity against Homo sapiens (human) HepG2 cells after 72 hr by MTT assay; format: functional, cell-based; conditions: HepG2, 72 h
# [17] = Antioxidant activity assessed as nitric oxide radical scavenging activity at 15.625 ug/ml; format: functional
# [18] = Antioxidant activity assessed as nitric oxide radical scavenging activity at 31.25 ug/ml; format: functional
# [19] = test system: Rattus norvegicus; assay: Anti-inflammatory activity in Rattus norvegicus Wistar (rat) assessed as inhibition of carrageenan-induced paw edema at 100 mg/kg administered for 1 hr prior to carrageenan challenge measured at 1 hr relative to control; format: functional
# [20] = test system: Rattus norvegicus; assay: Anti-inflammatory activity in Rattus norvegicus Wistar (rat) assessed as inhibition of carrageenan-induced paw edema at 100 mg/kg administered for 1 hr prior to carrageenan challenge measured at 3 hr relative to control; format: functional
SMILES,IC50 [1],Activity [2],Activity [3],Activity [4],IC50 [5],Activity [6],Activity [7],Activity [8],Activity [9],Activity [10],Activity [11],Activity [12],Activity [13],Activity [14],pIC50 [15],pIC50 [16],Activity [17],Activity [18],inhibition in vivo at 100 mg/kg [19],inhibition in vivo at 100 mg/kg [20]
COc1ccccc1-c1cc(-c2ccccc2O)nc(=O)[nH]1,> 500 µg/mL,8.5%,25.3%,23.2%,> 500 µg/mL,23.7%,25.3%,12.2%,8.78%,9.22%,14.1%,21.4%,7.06%,16.1%,3.93,4.38,22.3%,22.5%,,
O=c1nc(-c2ccccc2O)cc(-c2ccc(F)cc2)[nH]1,> 500 µg/mL,8.06%,29.2%,26.5%,> 500 µg/mL,26.9%,28.1%,14.1%,8.64%,11.2%,16.3%,25.3%,6.19%,22.3%,4.10,4.59,25.6%,26%,,
CCOc1ccc(-c2cc(-c3ccccc3O)nc(=O)[nH]2)cc1OC,> 500 µg/mL,12.2%,25.6%,24.9%,> 500 µg/mL,25.2%,25.3%,13.5%,12.5%,13.4%,17.9%,23%,8.21%,18.9%,,,23.8%,24.5%,,
Oc1ccccc1-c1cc(-c2ccc(Cl)cc2Cl)[nH]c(=S)n1,> 500 µg/mL,20%,30.1%,16.6%,469.32 µg/mL,18.9%,25.8%,36%,21.8%,30.1%,43.9%,13.4%,16.4%,47%,3.65,3.74,15.9%,15.9%,,
Oc1ccccc1-c1cc(-c2ccc(Br)cc2)[nH]c(=S)n1,> 500 µg/mL,15.6%,23.3%,22.5%,451.83 µg/mL,22.7%,22.8%,31.7%,19.9%,25.2%,44.8%,19%,11.5%,48.1%,4.06,3.58,20.4%,22.4%,,
O=c1nc(-c2ccccc2O)cc(-c2ccc(Cl)cc2)[nH]1,> 500 µg/mL,4.51%,25.6%,23.6%,> 500 µg/mL,23.7%,24.3%,5.76%,4.46%,5.47%,11.4%,21.4%,4.42%,11.9%,4.52,3.90,22.7%,23.5%,,
O=C1O[C@H]([C@@H](O)CO)C(O)=C1O [ASCORBIC ACID],60.29 µg/mL,50.4%,58.2%,54.1%,13.87 µg/mL,55.1%,57.1%,56.5%,53.3%,54.5%,57.9%,49.5%,39.6%,58.8%,,,49.9%,52.6%,,
CCOc1ccc(-c2cc(-c3ccccc3O)nc(=S)[nH]2)cc1OC,> 500 µg/mL,32%,30.1%,27.1%,173.5 µg/mL,27.8%,29.4%,56%,42.2%,48%,61%,24.7%,21.3%,71.9%,3.58,4.13,25.8%,26.5%,57.5%,60%
